Source: US8951938B2, “Combinatorial rosamine library to detect cell-state switching” (New York University, priority 2007, dated 2015)
“Also recorded” adds a separate entry of the source.

Tests used:
RNA = assay: Analyte screening of rosamine library, fluorescence response
Experimental: (§1) The rosamine derivative compounds were screened toward 47 different analytes that include proteins, polysaccharides, nucleic acids, and metal ions. The stock solution of each dye (50 μL) in HEPES (20 mM, pH=7.4) or PBS (20 mM, pH=7.4) was prepared, and diluted with the each analyte (50 μL, 1.0 mg/mL or 200 μM) in the same buffer solution. The final dye concentration varied from 0.5 μM to 10 μM. The fluorescence intensity fold changes of each dye in the presence of analytes were calculated by comparing the fluorescence intensity at the maximum emission wavelength with/without the analyte.

DNA = assay: as above
Experimental: as §1

Structure (SMILES) | fluorescence response to RNA among 47 analytes (RNA) | fluorescence response to DNA among 47 analytes (DNA)
CC1=CC(C)(C)N(C)c2ccc3c(=O)c4ccc(N)cc4n(C)c3c21 [J] | selective response; also recorded: selective increase | –
CCN(CCCN(C)C)c1ccc2c(=O)c3ccc(N)cc3oc2c1 [L, 3-Amino-6-[(3-dimethylamino-propyl)-ethyl-amino]-xanthen-9-one] | – | selective response; also recorded: selective increase
